Source: patent US11813270B2, “Nitric oxide-releasing antibacterial compounds, formulations, and methods pertaining thereto” (KNOW BIO, LLC, priority 2020, dated 2023)

Columns and labels:
Pseudomonas aeruginosa = assay: MIC/MBC assay (CLSI method); type: cell-based; settings: combined composition of β-cyclodextrin and MTDD
Mycobacterium abscessus = assay: MIC/MBC assay (CLSI method); type: cell-based; settings: unit not given

| NO Load (unit not given) | MIC (Mycobacterium abscessus; M. abscessus N0010, clinical) | MIC (Mycobacterium abscessus; M. abscessus N0016, clinical) | MIC (Mycobacterium abscessus; M. abscessus N0017, clinical) | MIC (Mycobacterium abscessus; M. abscessus N0018, clinical) | MIC (Mycobacterium abscessus; M. abscessus N0019, clinical) | MIC (Mycobacterium abscessus; M. abscessus N0020, clinical) | MIC (Mycobacterium abscessus; M. abscessus N0046) | Compound | NO-loading (combined composition of β-cyclodextrin and MTDD) | MIC against P. aeruginosa (Pseudomonas aeruginosa) | MBC (Mycobacterium abscessus; M. abscessus N0010, clinical) | MBC (Mycobacterium abscessus; M. abscessus N0016, clinical) | MBC (Mycobacterium abscessus; M. abscessus N0017, clinical) | MBC (Mycobacterium abscessus; M. abscessus N0018, clinical) | MBC (Mycobacterium abscessus; M. abscessus N0019, clinical) | MBC (Mycobacterium abscessus; M. abscessus N0020, clinical) | MBC (Mycobacterium abscessus; M. abscessus N0046) |
| --- | --- | --- | --- | --- | --- | --- | --- | --- | --- | --- | --- | --- | --- | --- | --- | --- | --- |
|  |  |  |  |  |  |  |  | OC[C@H]1O[C@@H]2O[C@H]3[C@H](O)[C@@H](O)[C@@H](O[C@H]4[C@H](O)[C@@H](O)[C@@H](O[C@H]5[C@H](O)[C@@H](O)[C@@H](O[C@H]6[C@H](O)[C@@H](O)[C@@H](O[C@H]7[C@H](O)[C@@H](O)[C@@H](O[C@H]8[C@H](O)[C@@H](O)[C@@H](O[C@H]1[C@H](O)[C@H]2O)O[C@@H]8CO)O[C@@H]7CO)O[C@@H]6CO)O[C@@H]5CO)O[C@@H]4CO)O[C@@H]3CO [0% MTDD, β-cyclodextrin] | 0.0 µmol/mg | >6250 µg/mL |  |  |  |  |  |  |  |
| 6.9 | 1 | 2 | 2 | 1 | 2 | 1 | 2 | C[C@@H]1CCC[C@H](C)N1[N+]([O-])=N[O-].[Na+] [cis-DMP/NO] |  |  | 4 | 4 | 4 | 4 | 4 | 2 | 4 |
